Drawing on the NIST ThermoML archive (doi:10.1016/j.jct.2018.09.003), this text covers mass density for one molecule.

For this data set the following is noted: 101.33 kPa, Liquid, Vibrating tube method.

± gives the expanded uncertainty stated by the source.

Consider `CCCCCCCCn1cc[n+](C)c1C.F[B-](F)(F)F` [1-octyl-2,3-dimethylimidazolium tetrafluoroborate], for which the mass density is 1092.3 ± 2.5 kg/m3 (313.15 K); 1086 ± 2.5 kg/m3 (323.15 K); 1079.7 ± 2.5 kg/m3 (333.15 K); 1073.3 ± 2.5 kg/m3 (343.15 K); 1067 ± 2.5 kg/m3 (353.15 K).
